Results: patent US10653691B2, “Method of promoting remyelination” (Case Western Reserve University, priority 2013, dated 2020)

What was measured:
mouse OPCs [1] = experiment: RNA sequencing of drug-treated OPCs; format: cell-based; settings: 2, 6 or 12 h of drug treatment
Description: Cells were lysed directly in 1 ml TRIzol (Invitrogen) and stored at −80° C. Once all samples were collected, samples were thawed on ice and separated with chloroform using Phase Lock Gel tubes (5 PRIME). RNA was isolated using the miRNeasy PlusMini Kit (Qiagen) according to the manufacturer's protocol. One microgram of each sample was then poly-A selected, fragmented, and library prepared using the TruSeqRNA Sample Prep Kit (Illumina) according to the manufacturer's protocol. Samples were indexed using TruSeq adapters. One hundred base-pair paired-end reads were generated for each sample on an Illumina HiSeq 2500 instrument at the Case Western Reserve University Genomics Core facility. Between 5 million and 13 million reads were generated per sample for drug time course experiments. […] EpiSCs, EpiSC OPCs, and in vivo OPCs were sequenced to depths of 51,271,458 reads, 61,072,460 reads, and 62,530,709 reads, respectively. […]
Reference genome files were retrieved from Illumina iGenomes. Reads were aligned to the mm9 genome using Tophat version 2.0.8 with default settings. Expression values of known RefSeq genes were calculated in units of fragments per kilobase per million reads (FPKM) using Cufflinks version 2.0.2. […] The collective list of changed genes for each drug was evaluated with Ingenuity Pathway Analysis (application build 261899, content version 18030641).

[2] = mice, intraperitoneal
Description: After 1 or 6 h, […] of plasma was collected then each animal was perfused with PBS. Brains were collected, weighed, and rinsed with PBS. Water (0.5 ml) was added to the brain samples, which were then homogenized. Plasma and brain samples were each diluted fivefold with blank rat plasma. Three hundred microlitres of internal standard solution was added to the samples, vortexed, and centrifuged. Five microlitres of each sample was injected into an API-4000Qtrap mass spectrometer and quantified (Climax Labs).

MOG35-55 EAE mouse model = experiment: External validation of MOG35-55 EAE at an independent contract laboratory; format: in vivo; settings: 10 mg/kg, n=12 mice per group
Description: EAE was induced by immunizing 10-week-old C57BL/6 female mice with […] injection of […] complete Freund's adjuvant emulsion (Hooke Laboratories). One hour after immunization, mice were given 100 ng of pertussis toxin by 100 μl intraperitoneal injection. A second dose of pertussis toxin was administered the next day. EAE onset was monitored daily and scored using a clinical scale where 0 represented no abnormality; 1, limp tail; 2, limp tail and hind limb weakness; 3, hind limb paralysis; 4, hind limb paralysis and forelimb weakness; and 5, moribund. […] Once mice reached peak of disease ˜day 15; clinical score=3) they were randomized into treatment groups, and drug or vehicle (DMSO in saline) was administered intraperitoneally daily for 10 days (n=12-16 mice per group). […] Experimenters were blinded to the identity of the treatments and animals were scored daily. Cumulative disease scores for each animal were calculated during the treatment period, and a two-tailed t-test compared drug—with vehicle-treated groups. The extent of recovery for each animal was calculated as the difference between the peak disease score and the score at the end of each experiment, and a two-tailed t-test was used to compare each treatment with vehicle. […]

mouse OPCs [3] = experiment: Global phosphoproteomics of drug-treated OPCs; format: cell-based; settings: 1 and 5 h after treatment
Description: Briefly, for each sample 30 million cells were lysed with 2% SDS solution with protease and phosphatase inhibitor (Thermo Fisher), and detergent was removed on 200 μl of the cell lysate using the FASP cleaning procedure. Each sample was digested by a two-step Lys-C/trypsin proteolytic cleavage and subjected to phospho-enrichment using a commercially available TiO2 enrichment spin tips (Thermo Fisher). LC-MS/MS analysis used a UPLC system (NanoAcquity, Waters) that was interfaced to an Orbitrap ProVelos Elite MS system (Thermo Fisher). Fold-change calculations were determined from peptide intensities for each drug versus DMSO at each time point. Phosphopeptides with greater than twofold change were imported into Ingenuity Pathway Analysis to elucidate signalling pathways perturbed with drug treatment.

ERK1/2 = experiment: Western blot of ERK1/2 phosphorylation in mouse fibroblasts; format: cell-based; settings: non-neural cell type, treated for 1 h
EpiSC-derived OPCs = experiment: Dose-response testing of drug hits (percent PLP1+ oligodendrocytes, cytotoxicity); format: cell-based, mouse; settings: seven point dose response; seen only at the highest 6.7 μM dose
Excerpt: Dose-response testing of drug hits followed the same procedure with the following modifications to eliminate any artefacts in the primary screen: independently sourced drugs; a distinct batch of EpiSC-derived OPCs from a mouse of opposite sex; multi-dose testing; cytotoxicity analysis; an alternative marker of mature oligodendrocytes proteolipid protein 1 (PLP1, antibody clone AA3 provided by B. Trapp; 1:5,000); and an alternative high content assay endpoint parameter (percentage of oligodendrocytes differentiated instead of process intensity and length parameters). […]
For the 5 μM in vitro screen, stained plates were imaged on the Opera confocal imaging system (PerkinElmer) and a set of 24×10 fields were collected from each well, resulting in an average of 10,000 cells being scored per well. For the dose-response (6.7 μM, 5 μM, 3.3 μM, 1.7 μM, 666 nM, 500 nM, and 333 nM) in vitro assays, plates were imaged on the Operetta High Content Imaging and Analysis system (PerkinElmer) and a set of 14×20 fields captured from each well resulting in an average of 3,300 cells being scored per well. […] Each traced nucleus region was then expanded by 50% and cross-referenced with the mature myelin protein (MBP or PLP1) stain to identify oligodendrocyte nuclei, and from this the percentage of oligodendrocytes was calculated. […]

Structure (SMILES)	modulation of gene expression (mouse OPCs [1])	crossing of the blood-brain barrier [2]	efficacy to reduce disease severity, independent validation (MOG35-55 EAE mouse model)	pathways affected in phosphoproteomic analysis (mouse OPCs [3])	ERK1/2 phosphorylation in mouse fibroblasts (ERK1/2)	toxicity and decrease in PLP1 positive cells in dose response (EpiSC-derived OPCs)
C[C@H]1C[C@H]2[C@@H]3CCC4=CC(=O)C=C[C@]4(C)[C@@]3(F)[C@@H](O)C[C@]2(C)[C@@]1(O)C(=O)CCl [clobetasol]	potently modulated genes downstream of multiple nuclear hormone receptors	readily crossed the blood-brain barrier				
Clc1ccc(COC(Cn2ccnc2)c2ccc(Cl)cc2Cl)c(Cl)c1 (stereo not drawn) [miconazole]			independently validated the preclinical efficacy	proteins in the mitogen-activated protein (MAP) kinase pathway were most strongly affected	no increase of ERK1/2 phosphorylation	Slight toxicity and a decrease in PLP1 positive cells
